Data: ChEMBL document CHEMBL3045062, “Potent in vitro and in vivo antitubercular activity of certain newly synthesized indophenazine 1,3,5-trisubstituted pyrazoline derivatives bearing benzofuran” (Med Chem Res, 2011)
In brackets after ≈: the same amount, converted by molar mass.

Test system: Mycobacterium tuberculosis
Test: Antitubercular activity against Isoniazid,rifampicin,gatifloxacin-resistant Mycobacterium tuberculosis after 60 days
Format: functional

**Q.** Which MIC50 does the source give for CC(=O)c1ccccc1C1CC(c2cc3cc(O)ccc3o2)=NN1C(=O)Cn1c2ccccc2c2nc3ccccc3nc21 (stereo not given) here?
**A.** 9.56 µg/mL (≈ 16.5 µM)

**Q.** And the MIC90?
**A.** 7.45 µg/mL (≈ 12.9 µM)

**Q.** Which results are given for O=C(Cn1c2ccccc2c2nc3ccccc3nc21)N1N=C(c2cc3cc(O)ccc3o2)CC1c1ccc(O)cc1 (stereo not given)?
**A.** MIC50: 9.86 µg/mL (≈ 17.8 µM); MIC90: 11.2 µg/mL (≈ 20.3 µM)

**Q.** CN(C)c1ccc(C2CC(c3cc4cc(O)ccc4o3)=NN2C(=O)Cn2c3ccccc3c3nc4ccccc4nc32)cc1 (stereo not given) was tested. Which MIC50 did it give?
**A.** 5 µg/mL (≈ 8.61 µM)

**Q.** What about the MIC90 of the same compound?
**A.** 8.98 µg/mL (≈ 15.5 µM)

**Q.** How did the MIC50 turn out when O=C(Cn1c2ccccc2c2nc3ccccc3nc21)N1N=C(c2cc3cc(O)ccc3o2)CC1c1ccccc1Cl (stereo not given) was run?
**A.** 4.68 µg/mL (≈ 8.18 µM)

**Q.** What about the MIC90 of the same compound?
**A.** 8.61 µg/mL (≈ 15.1 µM)

**Q.** For O=C(Cn1c2ccccc2c2nc3ccccc3nc21)N1N=C(c2cc3cc(O)ccc3o2)CC1/C=C/c1ccccc1 (stereo not given), which MIC50 is on record?
**A.** 5.6 µg/mL (≈ 9.94 µM)

**Q.** And the MIC90?
**A.** 11.3 µg/mL (≈ 20.1 µM)

**Q.** How did the MIC50 turn out when CO[C@H]1/C=C/O[C@@]2(C)Oc3c(C)c(O)c4c(O)c(c(/C=N/N5CCN(C)CC5)c(O)c4c3C2=O)NC(=O)/C(C)=C\C=C\[C@H](C)[C@H](O)[C@@H](C)[C@@H](O)[C@@H](C)[C@H](OC(C)=O)[C@@H]1C [RIFAMPIN] was run?
**A.** 4.21 µg/mL (≈ 5.12 µM)

**Q.** What about the MIC90 of the same compound?
**A.** 7.37 µg/mL (≈ 8.96 µM)

**Q.** How did the MIC50 turn out when COc1c(N2CCNC(C)C2)c(F)cc2c(=O)c(C(=O)O)cn(C3CC3)c12 (stereo not given) [GATIFLOXACIN] was run?
**A.** 14.7 µg/mL (≈ 39.2 µM)

**Q.** What about the MIC90 of the same compound?
**A.** 28.5 µg/mL (≈ 75.8 µM)

**Q.** Which results are given for COc1ccc(C2CC(c3cc4cc(O)ccc4o3)=NN2C(=O)Cn2c3ccccc3c3nc4ccccc4nc32)cc1 (stereo not given)?
**A.** MIC50: 11.5 µg/mL (≈ 20.3 µM); MIC90: 15.4 µg/mL (≈ 27.1 µM)

**Q.** For O=C(Cn1c2ccccc2c2nc3ccccc3nc21)N1N=C(c2cc3cc(O)ccc3o2)CC1c1ccco1 (stereo not given), which MIC50 is on record?
**A.** 6.4 µg/mL (≈ 12.1 µM)

**Q.** And the MIC90?
**A.** 9.78 µg/mL (≈ 18.5 µM)

**Q.** What does the source list for O=C(Cn1c2ccccc2c2nc3ccccc3nc21)N1N=C(c2cc3cc(O)ccc3o2)CC1c1ccc(Cl)cc1 (stereo not given)?
**A.** MIC50: 5.23 µg/mL (≈ 9.14 µM); MIC90: 8.66 µg/mL (≈ 15.1 µM)

**Q.** O=C(Cn1c2ccccc2c2nc3ccccc3nc21)N1N=C(c2cc3cc(O)ccc3o2)CC1c1ccccc1[N+](=O)[O-] (stereo not given) was tested. Which MIC50 did it give?
**A.** 3.24 µg/mL (≈ 5.56 µM)

**Q.** What about the MIC90 of the same compound?
**A.** 7.2 µg/mL (≈ 12.4 µM)

**Q.** What does the source list for O=C(Cn1c2ccccc2c2nc3ccccc3nc21)N1N=C(c2cc3cc(O)ccc3o2)CC1c1cccc([N+](=O)[O-])c1 (stereo not given)?
**A.** MIC50: 1.2 µg/mL (≈ 2.06 µM); MIC90: 2 µg/mL (≈ 3.43 µM)

**Q.** What does the source list for COc1ccc(C2CC(c3cc4cc(O)ccc4o3)=NN2C(=O)Cn2c3ccccc3c3nc4ccccc4nc32)c(O)c1 (stereo not given)?
**A.** MIC50: 7.8 µg/mL (≈ 13.4 µM); MIC90: 13.1 µg/mL (≈ 22.4 µM)

**Q.** For O=C(Cn1c2ccccc2c2nc3ccccc3nc21)N1N=C(c2cc3cc(O)ccc3o2)CC1c1ccccc1O (stereo not given), which MIC50 is on record?
**A.** 10.3 µg/mL (≈ 18.7 µM)

**Q.** What about the MIC90 of the same compound?
**A.** 12.6 µg/mL (≈ 22.7 µM)

**Q.** Which results are given for COc1ccccc1C1CC(c2cc3cc(O)ccc3o2)=NN1C(=O)Cn1c2ccccc2c2nc3ccccc3nc21 (stereo not given)?
**A.** MIC50: 10.7 µg/mL (≈ 18.8 µM); MIC90: 13.6 µg/mL (≈ 24 µM)
